Experimental data reported in ChEMBL document CHEMBL1136031, “8-Aryl xanthines potent inhibitors of phosphodiesterase 5” (Bioorg Med Chem Lett, 2002).
In brackets after ≈: the same amount, converted by molar mass.

How the values were obtained:
[1] = Ratio of IC50 against human platelet PDE5 to that against bovine retina PDE6
[2] = target: cGMP-specific 3',5'-cyclic phosphodiesterase (Homo sapiens, UniProt O76074); assay: Inhibitory activity against human platelet Phosphodiesterase 5 (PDE5)
Phosphodiesterase 6 = assay: Inhibitory concentration against bovine retina phosphodiesterase 6 activity; assay type: tissue-based
[3] = Partition coefficient (logP); assay type: physicochemical; details: octanol/water
[4] = Bioavailability; assay type: ADME, organism-based; details: rat, in vivo; read-out: BAV
[5] = In vitro microsome metabolism clearance in rat was determined; assay type: ADME; details: microsomes
[6] = Kinetic solubility at pH 7.4, ca; assay type: physicochemical; details: buffer
[7] = Volume in steady state distribution value was determined; assay type: ADME, organism-based; details: rat, in vivo; read-out: Vss
[8] = In vitro microsome metabolism clearance in human was determined; assay type: ADME; details: microsomes
[9] = Kinetic solubility at pH 5, ca; assay type: physicochemical; details: buffer
Caco-2 [10] = assay: Caco-2 permeability as biopharmaceutical property; assay type: functional, cell-based; details: Homo sapiens
[11] = The pharmacokinetic property, Half-life was determined; assay type: ADME, organism-based; details: rat, in vivo
[12] = Kinetic solubility at pH 5.9; assay type: physicochemical; details: buffer
[13] = The pharmacokinetic property, Half-life in rat in vivo; assay type: ADME, organism-based
[14] = Kinetic solubility at pH 6.9, ca; assay type: physicochemical; details: buffer
[15] = Log D value at pH 7.4; assay type: physicochemical; details: buffer
Phosphodiesterase 1 = Phosphodiesterase 1 (Bos taurus, UniProt Q01061+P14100); assay: Inhibition of bovine heart Phosphodiesterase 1 (PDE1); assay type: protein assay
Phosphodiesterase 3 = Phosphodiesterase 3 (Homo sapiens, UniProt Q14432+Q13370); assay: Inhibition of human platelet Phosphodiesterase 3
Caco-2 [16] = assay: Caco 2 permeability is determined; assay type: functional, cell-based; details: Homo sapiens
[17] = In vitro microsome metabolism clearance in human was determined; High; assay type: ADME; details: microsomes
[18] = Kinetic solubility at pH 5; ca; assay type: physicochemical; details: buffer
[19] = Kinetic solubility at pH 5; assay type: physicochemical; details: caco-2, pH 5
[20] = Kinetic solubility at pH 7.4; assay type: physicochemical; details: buffer
Homo sapiens = species: Homo sapiens; assay: Caco-2 permeability was determined; assay type: ADME

CCCOc1ccccc1-c1nc2c(=O)n(C)c(=O)n(CC(C)C)c2[nH]1
Ratio [1]: 1.4 | IC50 [2]: 60 nM | IC50 (Phosphodiesterase 6): 87 nM

CC(C)Cn1c(=O)n(C)c(=O)c2[nH]c(-c3ccccc3F)nc21
IC50 [2]: > 10000 nM

CCOc1ccc(S(=O)(=O)N2CCN(C)CC2)cc1-c1nc2c(=O)n(C)c(=O)n(CC3CCCCC3)c2[nH]1
IC50 [2]: 160 nM

CCOc1ccc(S(=O)(=O)N2CCN(CCN(C)C)CC2)cc1-c1nc2c([nH]1)c(=O)n(C)c(=O)n2CC(C)C
IC50 [2]: 63 nM

CCCOc1ccc(S(=O)(=O)N2CCN(C(=O)N(C)C)CC2)cc1-c1nc2c(=O)n(C)c(=O)n(CC(C)C)c2[nH]1
logP [3]: 4.04 | Ratio [1]: 4 | IC50 [2]: 3.5 nM | bioavailability [4]: 0% | microsomal CLint [5]: 185 µL/min/mg | solubility kinetic [6]: 25 µg/mL (≈ 43.4 µM) | Vd [7]: 3.4 L/kg | microsomal CLint [8]: 71 µL/min/mg | solubility kinetic [9]: 25 µg/mL (≈ 43.4 µM) | Papp (Caco-2 [10]): 22.9 ×10⁻⁶ cm/s | IC50 (Phosphodiesterase 6): 14 nM | half-life [11]: 0.367 h

CCCOc1ccc(S(N)(=O)=O)cc1-c1nc2c([nH]1)c(=O)n(C)c(=O)n2CC(C)C
IC50 [2]: 5 nM

CC(C)Cn1c(=O)n(C)c(=O)c2[nH]c(-c3ccccc3O)nc21
IC50 [2]: > 10000 nM

CC(C)COc1ccccc1-c1nc2c([nH]1)c(=O)n(C)c(=O)n2CC(C)C
IC50 [2]: 105 nM

CCCOc1ccc(S(=O)(=O)N2CCN(CCN(C)C)CC2)cc1-c1nc2c([nH]1)c(=O)n(C)c(=O)n2CC(C)C
IC50 [2]: 24 nM

CCOc1ccc(S(=O)(=O)N2CCN(CCN(C)C)CC2)cc1-c1nc2c(=O)n(C)c(=O)n(CC(C)C)c2[nH]1
Ratio [1]: 2.5 | IC50 (Phosphodiesterase 6): 146 nM

CC(C)COc1ccccc1-c1nc2c(=O)n(C)c(=O)n(CC(C)C)c2[nH]1
Ratio [1]: 0.7 | IC50 (Phosphodiesterase 6): 73 nM

CCCOc1ccc(S(=O)(=O)N2CCC(CCO)CC2)cc1-c1nc2c(=O)n(C)c(=O)n(CC(C)C)c2[nH]1
Ratio [1]: 5.5 | Papp (Caco-2 [10]): 13.2 ×10⁻⁶ cm/s | IC50 (Phosphodiesterase 6): 17 nM

CCCCOc1ccccc1-c1nc2c(=O)n(C)c(=O)n(CC(C)C)c2[nH]1
Ratio [1]: 3.2 | IC50 (Phosphodiesterase 6): 436 nM

CSc1ccccc1-c1nc2c(=O)n(C)c(=O)n(CC(C)C)c2[nH]1
IC50 [2]: 5420 nM

CCOc1ccc(S(=O)(=O)N2CCN(CC)CC2)cc1-c1nc2c([nH]1)c(=O)n(C)c(=O)n2CC(C)C
IC50 [2]: 26 nM

CCOc1ccc(S(=O)(=O)N2CCN(C)CC2)cc1-c1nc2c([nH]1)c(=O)n(C)c(=O)n2CC(C)C
logP [3]: 3.26 | solubility kinetic [12]: > 160 µg/mL | bioavailability [4]: 11% | Vd [7]: 9.7 L/kg | half-life [13]: 1.53 h | solubility kinetic [14]: 30 µg/mL (≈ 59.5 µM) | logD [15]: 3.15

CCOc1ccc(S(=O)(=O)N2CCN(C)CC2)cc1-c1nc2c(=O)n(C)c(=O)n(CC(C)C)c2[nH]1
Ratio [1]: 4.9 | IC50 (Phosphodiesterase 1): 3380 nM | IC50 (Phosphodiesterase 3): > 10000 nM | Papp (Caco-2 [16]): 25 ×10⁻⁶ cm/s | IC50 (Phosphodiesterase 6): 100 nM

CCOc1ccccc1-c1nc2c(=O)n(C)c(=O)n(CC(C)C)c2[nH]1
Ratio [1]: 3.1 | IC50 [2]: 73 nM | IC50 (Phosphodiesterase 6): 227 nM

CCCOc1ccc(S(=O)(=O)N(C)CCN(C)C)cc1-c1nc2c(=O)n(C)c(=O)n(CC(C)C)c2[nH]1
logP [3]: 4.9 | Ratio [1]: 72 | IC50 [2]: 16 nM | Papp (Caco-2 [10]): 0.3 ×10⁻⁶ cm/s | IC50 (Phosphodiesterase 6): 1150 nM

CCCOc1ccc(S(=O)(=O)N2CCN(CC)CC2)cc1-c1nc2c(=O)n(C)c(=O)n(CC(C)C)c2[nH]1
Ratio [1]: 0.5 | IC50 (Phosphodiesterase 6): 3 nM

C=CCCn1c(=O)n(C)c(=O)c2nc(-c3cc(S(=O)(=O)N4CCN(C)CC4)ccc3OCC)[nH]c21
IC50 [2]: 100 nM | IC50 (Phosphodiesterase 1): > 10000 nM | IC50 (Phosphodiesterase 3): > 10000 nM | IC50 (Phosphodiesterase 6): 5600 nM

CCCCCOc1ccccc1-c1nc2c([nH]1)c(=O)n(C)c(=O)n2CC(C)C
IC50 [2]: 551 nM

CC(C)Cn1c(=O)n(C)c(=O)c2[nH]c(-c3ccccc3N(C)C)nc21
IC50 [2]: > 10000 nM

CCOc1ccc(S(=O)(=O)N2CCN(C)CC2)cc1-c1nc2c(=O)[nH]c(=O)n(CC(C)C)c2[nH]1
IC50 [2]: 315 nM | IC50 (Phosphodiesterase 1): > 10000 nM | IC50 (Phosphodiesterase 3): > 10000 nM

CCCCOc1ccccc1-c1nc2c([nH]1)c(=O)n(C)c(=O)n2CC(C)C
IC50 [2]: 135 nM

CCOc1ccc(S(=O)(=O)N2CCN(C)CC2)cc1-c1nc2c(=O)n(C)c(=O)n(CC3CC3)c2[nH]1
IC50 [2]: 28 nM | IC50 (Phosphodiesterase 1): > 10000 nM | IC50 (Phosphodiesterase 3): > 10000 nM | IC50 (Phosphodiesterase 6): 217 nM

CC(C)Cn1c(=O)n(C)c(=O)c2[nH]c(-c3ccccc3OC(C)C)nc21
Ratio [1]: 2.8 | IC50 [2]: 77 nM | IC50 (Phosphodiesterase 6): 214 nM

CCOc1ccc(S(=O)(=O)N2CCN(CCO)CC2)cc1-c1nc2c(=O)n(C)c(=O)n(CC(C)C)c2[nH]1
Ratio [1]: 3.5 | IC50 (Phosphodiesterase 6): 68 nM

CCCCCCn1c(=O)n(C)c(=O)c2[nH]c(-c3cc(S(=O)(=O)N4CCN(C)CC4)ccc3OCC)nc21
IC50 [2]: 130 nM

CCCOc1ccc(S(=O)(=O)N(CC)CCN(C)C)cc1-c1nc2c(=O)n(C)c(=O)n(CC(C)C)c2[nH]1
Ratio [1]: 22 | IC50 [2]: 11 nM | IC50 (Phosphodiesterase 6): 242 nM

CCCOc1ccc(S(=O)(=O)N2CCN(CCO)CC2)cc1-c1nc2c(=O)n(C)c(=O)n(CC(C)C)c2[nH]1
Ratio [1]: 4 | IC50 [2]: 3.5 nM | IC50 (Phosphodiesterase 6): 15 nM

CCCOc1ccc(S(=O)(=O)N2CCC(CCO)CC2)cc1-c1nc2c([nH]1)c(=O)n(C)c(=O)n2CC(C)C
logP [3]: 3.67 | IC50 [2]: 3 nM | bioavailability [4]: 0% | microsomal CLint [5]: 226 µL/min/mg | solubility kinetic [6]: 5 µg/mL (≈ 9.13 µM) | Cl [17]: High | solubility kinetic [18]: 5 µg/mL (≈ 9.13 µM)

CCCOc1ccc(S(=O)(=O)N2CCN(C)CC2)cc1-c1nc2c(=O)n(C)c(=O)n(CC(C)C)c2[nH]1
Ratio [1]: 0.6 | IC50 [2]: 10 nM | IC50 (Phosphodiesterase 6): 6 nM

CCOc1ccc(S(=O)(=O)N2CCN(C)CC2)cc1-c1nc2c(=O)n(C)c(=O)n(Cc3ccc(OC)cc3)c2[nH]1
IC50 [2]: 59 nM | IC50 (Phosphodiesterase 1): 4520 nM | IC50 (Phosphodiesterase 3): > 10000 nM | IC50 (Phosphodiesterase 6): 1210 nM

CCOc1ccc(S(=O)(=O)N2CCN(C)CC2)cc1-c1nc2c(=O)n(C)c(=O)n(CC(C)CC)c2[nH]1 (stereo not given)
logP [3]: 3.81 | solubility kinetic [19]: > 200 µg/mL | solubility kinetic [20]: 100 µg/mL (≈ 193 µM) | IC50 [2]: 9 nM | bioavailability [4]: 11% | IC50 (Phosphodiesterase 1): > 10000 nM | IC50 (Phosphodiesterase 3): 6030 nM | microsomal CLint [5]: 178 µL/min/mg | Vd [7]: 9.7 L/kg | microsomal CLint [8]: 114 µL/min/mg | IC50 (Phosphodiesterase 6): 83 nM | Papp (Homo sapiens): 34.5 ×10⁻⁶ cm/s | half-life [11]: 1.53 h

COCCOc1ccccc1-c1nc2c([nH]1)c(=O)n(C)c(=O)n2CC(C)C
IC50 [2]: 1500 nM

CC(C)Cn1c(=O)n(C)c(=O)c2[nH]c(-c3ccccc3OCc3ccccc3)nc21
IC50 [2]: > 10000 nM

CCCOc1ccc(S(N)(=O)=O)cc1-c1nc2c(=O)n(C)c(=O)n(CC(C)C)c2[nH]1
Ratio [1]: 3 | IC50 (Phosphodiesterase 6): 16 nM

CC(C)COc1ccc(S(=O)(=O)N2CCN(C)CC2)cc1-c1nc2c([nH]1)c(=O)n(C)c(=O)n2CC(C)C
IC50 [2]: 93 nM

CCCOc1ccc(S(=O)(=O)N2CCN(CCOC)CC2)cc1-c1nc2c([nH]1)c(=O)n(C)c(=O)n2CC(C)C
IC50 [2]: 12 nM

CCCOc1ccc(S(=O)(=O)N2CCN(CCOC)CC2)cc1-c1nc2c(=O)n(C)c(=O)n(CC(C)C)c2[nH]1
Ratio [1]: 7.5 | IC50 (Phosphodiesterase 6): 91 nM

CCOc1ccc(S(=O)(=O)N2CCN(C)CC2)cc1-c1nc2c(=O)n(C)c(=O)n(CC(C)(C)C)c2[nH]1
IC50 [2]: 91 nM | IC50 (Phosphodiesterase 3): 5570 nM | IC50 (Phosphodiesterase 6): 2380 nM

CCCn1c(=O)n(C)c(=O)c2[nH]c(-c3cc(S(=O)(=O)N4CCN(C)CC4)ccc3OCC)nc21
IC50 [2]: 100 nM | IC50 (Phosphodiesterase 6): 345 nM

CC(C)Cn1c(=O)n(C)c(=O)c2[nH]c(-c3cc(S(=O)(=O)N4CCN(C)CC4)ccc3OC(C)C)nc21
Ratio [1]: 5 | IC50 [2]: 16 nM | IC50 (Phosphodiesterase 6): 77 nM

CNc1ccccc1-c1nc2c([nH]1)c(=O)n(C)c(=O)n2CC(C)C
IC50 [2]: > 10000 nM

CCOc1ccc(S(=O)(=O)N2CCN(CC)CC2)cc1-c1nc2c(=O)n(C)c(=O)n(CC(C)C)c2[nH]1
Ratio [1]: 7.5 | IC50 (Phosphodiesterase 6): 203 nM

CC(C)COc1ccc(S(=O)(=O)N2CCN(C)CC2)cc1-c1nc2c(=O)n(C)c(=O)n(CC(C)C)c2[nH]1
Ratio [1]: 1.1 | IC50 (Phosphodiesterase 6): 102 nM

CCCOc1ccc(S(=O)(=O)N2CCN(CC)CC2)cc1-c1nc2c([nH]1)c(=O)n(C)c(=O)n2CC(C)C
IC50 [2]: 5.5 nM

CCOc1ccc(S(=O)(=O)N2CCN(CCO)CC2)cc1-c1nc2c([nH]1)c(=O)n(C)c(=O)n2CC(C)C
IC50 [2]: 19 nM

CCCOc1ccc(S(=O)(=O)N2CCN(CCN(C)C)CC2)cc1-c1nc2c(=O)n(C)c(=O)n(CC(C)C)c2[nH]1
Ratio [1]: 1.5 | IC50 (Phosphodiesterase 6): 37 nM

CCOc1ccc(S(=O)(=O)N2CCN(C)CC2)cc1-c1nc2c([nH]1)c(=O)[nH]c(=O)n2C
IC50 [2]: > 10000 nM

CC(C)Cn1c(=O)n(C)c(=O)c2[nH]c(-c3ccccc3)nc21
IC50 [2]: > 10000 nM
